IC50, fold induction and Kd data for twelve compounds are collected here from patent US20220324835A1 (Nurix Therapeutics, Inc., priority 2018, published 2022).

Structures are written as SMILES.

In experiment [1] the target is T1, Cbl-b (Homo sapiens, UniProt Q13191). Kind of experiment: Cbl-b inhibition assay (Cbl-b activity assay, FRET, Biological Example 1; 100 mM NaCl, 60 nM Src kinase). The class given is biochemical. The settings on record: upper bound stated in text lists; read-out: IC50 values in the Cbl-b inhibition assay of Biological Example 1. In short, it runs like this:
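Inhibition is read as loss of FRET signal. The signal arises when Src-phosphorylated, N-terminal biotinylated Avi-Cbl-b (captured by streptavidin-terbium) binds UbcH5B carrying covalently linked Bodipy-Fluorescein-tagged ubiquitin.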

In experiment [2] the test system is T-cell. Kind of experiment: IL-2 secretion from T-cells co-stimulated with anti-CD3 and anti-CD28 antibody (Biological Example 2). The format is cell-based, human. The settings on record: Homo sapiens, T-cell, fold change over baseline, primary human total T-cells, read-out: IL-2 secretion Anti-CD3/Anti-CD28 stimulation; for fold induction at 0.3 µM: 0.3 μM Cbl-b inhibitor; for fold induction at 1 µM: 1 μM Cbl-b inhibitor; for fold induction at 4 µM: 4 μM Cbl-b inhibitor. The essentials:
(§1)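 Values are fold-change over baseline: readings (IL-2 release, CD25 staining) from inhibitor-treated T-cells divided against untreated cells […]. No detailed procedure stated.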

Experiment [3] concerns T-cell. Briefly: CD25 cell surface staining on T-cells co-stimulated with anti-CD3 and anti-CD28 antibody (Biological Example 2). The settings on record: Homo sapiens, T-cell, fold change over baseline, primary human total T-cells, read-out: CD25 staining Anti-CD3/Anti-CD28 stimulation; for fold induction at 0.3 µM: 0.3 μM Cbl-b inhibitor; for fold induction at 1 µM: 1 μM Cbl-b inhibitor; for fold induction at 4 µM: 4 μM Cbl-b inhibitor. The format is cell-based, human. In short, it runs like this:
as §1

Experiment [4] concerns the target T1, Cbl-b. Briefly: Cbl-b activity assay (Cbl-b inhibition assay), TR-FRET of Cbl-b interaction with UbcH5B-Ub. The class given is biochemical. The settings on record: assay buffer with 100 mM NaCl, 60 nM Src kinase; read-out: Cbl-b activity IC50. The essentials: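 Compound-treated Cbl-b was incubated 1.5 h with Src kinase (60 nM final; 30 nM for asterisked values, which also used 50 mM instead of 100 mM NaCl), 1 mM ATP and 5 mM MgCl2. Binding to fluorescent Ub-loaded UbcH5B (C85K mutant) was then read by TR-FRET after 1 h more.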
(In general: In TR-FRET formats the signal depends on donor and acceptor labels being close together.)

The target of another experiment is Cbl-b (residues 36-427) (Homo sapiens, UniProt Q13191). Briefly: Cbl-b binding assay (SPR, Biacore T200). The settings on record: 20° C., 1:1 binding model. The essentials: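 NeutrAvidin capture chip, 20° C; 50 s injections at 50 μl/min, 90-180 s dissociation; 0.3 M NaCl regeneration. Asterisked column: 50 mM NaCl buffer and 30 nM Src kinase in place of 100 mM NaCl and 60 nM Src kinase. 1:1 fit.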
Sequence of Cbl-b (residues 36-427) (Q13191 36-427): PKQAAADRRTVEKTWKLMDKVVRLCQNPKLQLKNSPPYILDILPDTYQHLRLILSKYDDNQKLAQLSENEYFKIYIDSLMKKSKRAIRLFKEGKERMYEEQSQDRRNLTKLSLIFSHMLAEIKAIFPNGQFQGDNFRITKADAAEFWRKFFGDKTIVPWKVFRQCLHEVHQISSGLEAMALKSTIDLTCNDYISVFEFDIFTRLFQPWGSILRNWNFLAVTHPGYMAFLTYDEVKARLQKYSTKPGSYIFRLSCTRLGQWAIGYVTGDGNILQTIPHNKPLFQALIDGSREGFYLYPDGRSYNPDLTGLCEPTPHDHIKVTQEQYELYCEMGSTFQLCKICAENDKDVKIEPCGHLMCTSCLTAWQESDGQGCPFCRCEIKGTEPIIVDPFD
(In general: SPR reads the build-up and loss of mass on a sensor chip optically.)

T1 sequence (Q13191 36-427): as above

One may read the IC50 as the concentration that gives 50% inhibition. By Kd is commonly meant the concentration at which binding is half-saturated. Lower therefore signals a tighter complex. `C[C@H](Sc1nncn1C)c1ccnc(NC(=O)c2cc3c(C(F)(F)F)cccc3[nH]2)c1` [Compound 120, N-[4-[(1S)-1-[(4-methyl-1,2,4-triazol-3-yl)sulfanyl]ethyl]-2-pyridyl]-4-(trifluoromethyl)-1H-indole-2-carboxamide]: the half-maximal inhibitory concentration (IC50) at Cbl-b [1] is at most 500 nM; on Cbl-b [4], 100 to 300 nM. Besides, the values for the fold induction at 0.3 µM in the experiment with T-cell [2] and in the experiment on T-cell [3] were 1.01 to 2.5 and below 1, respectively. The fold induction at 1 µM in the experiment with T-cell [2] is 1.01 to 2.5; in the experiment on T-cell [3], below 1. The figures for the fold induction at 4 µM with T-cell [2] and with T-cell [3] were 1.01 to 2.5 and below 1, respectively. For the same compound, the Kd at Cbl-b (residues 36-427) lay within 301 to 1000 nM.
In the case of `Cc1nc2cc([C@H](C)Sc3nncn3C)cc(NC(=O)c3cccc(C(F)(F)F)n3)c2o1` [Compound 130a, (S)-N-(2-methyl-5-(1-((4-methyl-4H-1,2,4-triazol-3-yl)thio)ethyl)benzo[d]oxazol-7-yl)-6-(trifluoromethyl)picolinamide], the IC50 on Cbl-b [1] was at most 1000 nM. Also, in the experiment on T-cell [2], the fold induction at 0.3 µM fell in the range of 2.51 to 5, the fold induction at 1 µM lay within 5 to 7.5 and the fold induction at 4 µM was above 7.5. In addition, in the experiment on T-cell [3], the fold induction at 0.3 µM lay within 1.31 to 1.5, the fold induction at 1 µM is 1.51 to 1.75 and the fold induction at 4 µM was above 1.76. For the same compound, at Cbl-b [4], the IC50 was in the range of 301 to 1000 nM. The compound further gave a Kd on Cbl-b (residues 36-427) of 301 to 1000 nM.
Consider `C[C@H](Sc1nncn1C)c1cccc(NC(=O)c2cc(C(=O)N3CC[C@H](O)C3)ccn2)c1` [Compound 140, 4-[[(3S)-3-hydroxypyrrolidin-1-yl]carbonyl]-N-[3-[(1S)-1-[(4-methyl-4H-1,2,4-triazol-3-yl)sulfanyl]ethyl]phenyl]pyridine-2-carboxamide], for which the IC50 at Cbl-b [1] is at most 500 nM. Also, in the experiment with T-cell [2], the fold induction at 0.3 µM was below 1, the fold induction at 1 µM is below 1 and the fold induction at 4 µM is below 1. Moreover, in the experiment with T-cell [3], the fold induction at 0.3 µM fell in the range of 1.01 to 1.3, the fold induction at 1 µM was in the range of 1.01 to 1.3 and the fold induction at 4 µM is 1.01 to 1.3. Moreover, the IC50 on Cbl-b [4] was 100 to 300 nM. Moreover, on Cbl-b (residues 36-427), the Kd lay within 301 to 1000 nM.
For the compound `C[C@H](Sc1nncn1C)c1cccc(NC(=O)c2cc(C(=O)N3CC(O)C3)ccn2)c1` [Compound 148, (S)-4-(3-hydroxyazetidine-1-carbonyl)-N-(3-(1-((4-methyl-4H-1,2,4-triazol-3-yl)thio)ethyl)phenyl)picolinamide], the IC50 on Cbl-b [1] was at most 500 nM. In addition, in the experiment on T-cell [2], the fold induction at 0.3 µM was below 1, the fold induction at 1 µM was below 1 and the fold induction at 4 µM is below 1. Further, in the experiment with T-cell [3], the fold induction at 0.3 µM was below 1, the fold induction at 1 µM was below 1 and the fold induction at 4 µM was below 1. Also, at Cbl-b [4], the IC50 was in the range of 301 to 1000 nM. In addition, the dissociation constant Kd at Cbl-b (residues 36-427) lay in the range of 1000 to 3000 nM.
Take `C[C@H](Sc1nncn1C)c1cccc(NC(=O)c2cc(C(=O)N3C[C@H](O)C[C@@H]3C)ccn2)c1` [Compound 151, 4-((2S,4R)-4-hydroxy-2-methylpyrrolidine-1-carbonyl)-N-(3-((S)-1-((4-methyl-4H-1,2,4-triazol-3-yl)thio)ethyl)phenyl)picolinamide]: on Cbl-b [1], the IC50 is at most 1000 nM. Besides, in the experiment with T-cell [2], the fold induction at 0.3 µM is above 7.5, the fold induction at 1 µM was above 7.5 and the fold induction at 4 µM is above 7.5. In the experiment on T-cell [3], the fold induction at 0.3 µM was in the range of 1.01 to 1.3, the fold induction at 1 µM lay in the range of 1.01 to 1.3 and the fold induction at 4 µM lay in the range of 1.01 to 1.3. On Cbl-b [4], the IC50 is 301 to 1000 nM. On Cbl-b (residues 36-427), this compound yielded a Kd of 1000 to 3000 nM.
In the case of `C[C@H](Sc1nncn1C)c1cccc(N2Cc3c(cccc3C(F)(F)F)C2=O)c1` [Compound 166a, (S)-2-(3-(1-((4-methyl-4H-1,2,4-triazol-3-yl)thio)ethyl)phenyl)-4-(trifluoromethyl)isoindolin-1-one], at Cbl-b [1], the IC50 was at most 500 nM. Also, in the experiment with T-cell [2], the fold induction at 0.3 µM was below 1, the fold induction at 1 µM is below 1 and the fold induction at 4 µM was in the range of 1.01 to 2.5. Further, in the experiment with T-cell [3], the fold induction at 0.3 µM was below 1, the fold induction at 1 µM was in the range of 1.01 to 1.3 and the fold induction at 4 µM lay within 1.01 to 1.3. Further, at Cbl-b [4], the IC50 lay within 100 to 300 nM. This compound also had a Kd on Cbl-b (residues 36-427) of 301 to 1000 nM.
For the compound `C[C@H](Sc1nncn1C)c1cccc(N2Cc3c(ccnc3Cl)C2=O)c1` [Compound 167, 4-chloro-2-[3-[(1S)-1-[(4-methyl-1,2,4-triazol-3-yl)sulfanyl]ethyl]phenyl]-3H-pyrrolo[3,4-c]pyridin-1-one], the IC50 on Cbl-b [1] is at most 500 nM. Further, in the experiment with T-cell [2], the fold induction at 0.3 µM lay in the range of 1.01 to 2.5, the fold induction at 1 µM was below 1 and the fold induction at 4 µM was in the range of 2.51 to 5. For the same compound, in the experiment with T-cell [3], the fold induction at 0.3 µM was in the range of 1.51 to 1.75, the fold induction at 1 µM was 1.01 to 1.3 and the fold induction at 4 µM is above 1.76. Besides, the IC50 on Cbl-b [4] is 301 to 1000 nM. Besides, the Kd at Cbl-b (residues 36-427) lay in the range of 301 to 1000 nM.
In the case of `CC(Sc1nncn1C)c1cc(F)cc(N2Cc3c(cccc3C(F)(F)F)C2=O)c1` [Compound 168, 2-[3-fluoro-5-[(1R)-1-[(4-methyl-1,2,4-triazol-3-yl)sulfanyl]ethyl]phenyl]-4-(trifluoromethyl)isoindolin-1-one], the IC50 on Cbl-b [1] is at most 500 nM. In the experiment on T-cell [2], the fold induction at 0.3 µM was 1.01 to 2.5, the fold induction at 1 µM lay within 1.01 to 2.5 and the fold induction at 4 µM was 1.01 to 2.5. In the experiment with T-cell [3], the fold induction at 0.3 µM is below 1, the fold induction at 1 µM is below 1 and the fold induction at 4 µM lay within 1.01 to 1.3. The IC50 on Cbl-b [4] is 301 to 1000 nM. Besides, on Cbl-b (residues 36-427), the Kd was 1000 to 3000 nM.
As for `C[C@H](Sc1nncn1C)c1cc(F)cc(N2Cc3c(cccc3C(F)(F)F)C2=O)c1` [Compound 168a, 2-[3-fluoro-5-[(1S)-1-[(4-methyl-1,2,4-triazol-3-yl)sulfanyl]ethyl]phenyl]-4-(trifluoromethyl)isoindolin-1-one], the IC50 at Cbl-b [1] is at most 500 nM. In the experiment with T-cell [2], the fold induction at 0.3 µM is below 1, the fold induction at 1 µM lay within 1.01 to 2.5 and the fold induction at 4 µM is below 1. In addition, in the experiment on T-cell [3], the fold induction at 0.3 µM lay within 1.01 to 1.3, the fold induction at 1 µM was 1.01 to 1.3 and the fold induction at 4 µM is 1.01 to 1.3. Also, the IC50 on Cbl-b [4] is 100 to 300 nM. On Cbl-b (residues 36-427), this compound showed an equilibrium dissociation constant (Kd) of 301 to 1000 nM.
As to `C[C@H](Sc1nncn1C)c1ccnc(N2Cc3c(cccc3C(F)(F)F)C2=O)c1` [Compound 172a, (S)-(4-(1-((4-methyl-4H-1,2,4-triazol-3-yl)thio)ethyl)pyridin-2-yl)-4-(trifluoromethyl)isoindolin-1-one], the IC50 on Cbl-b [1] is at most 1000 nM. Moreover, in the experiment with T-cell [2], the fold induction at 0.3 µM lay within 2.51 to 5, the fold induction at 1 µM is 2.51 to 5 and the fold induction at 4 µM lay in the range of 2.51 to 5. Besides, in the experiment with T-cell [3], the fold induction at 0.3 µM is below 1, the fold induction at 1 µM was below 1 and the fold induction at 4 µM is below 1. Moreover, the IC50 at Cbl-b [4] lay in the range of 301 to 1000 nM. Further, the Kd at Cbl-b (residues 36-427) fell in the range of 1000 to 3000 nM.
Regarding `C[C@H](Cc1nncn1C)c1cccc(NC(=O)c2cccc(S(C)(=O)=O)n2)c1` [Compound 185, (R)-N-(3-(1-(4-methyl-4H-1,2,4-triazol-3-yl)propan-2-yl)phenyl)-6-(methylsulfonyl)picolinamide], the IC50 on Cbl-b [1] was at most 1000 nM. In addition, in the experiment with T-cell [2], the fold induction at 0.3 µM was 1.01 to 2.5, the fold induction at 1 µM lay in the range of 1.01 to 2.5 and the fold induction at 4 µM was in the range of 2.51 to 5. Also, in the experiment with T-cell [3], the fold induction at 0.3 µM was 1.01 to 1.3, the fold induction at 1 µM was above 1.76 and the fold induction at 4 µM was above 1.76. Also, the 50% inhibitory concentration (IC50) on Cbl-b [4] lay in the range of 301 to 1000 nM. For the same compound, the Kd at Cbl-b (residues 36-427) lay within 1000 to 3000 nM.
As for `C[C@H](Cc1nncn1C)c1cccc(NC(=O)c2cc(C(C)(C)O)c(Cl)cn2)c1` [Compound 186, (R)-5-chloro-4-(2-hydroxypropan-2-yl)-N-(3-(1-(4-methyl-4H-1,2,4-triazol-3-yl)propan-2-yl)phenyl)picolinamide], the IC50 at Cbl-b [1] was at most 500 nM; on Cbl-b [4], 301 to 1000 nM. The fold induction at 0.3 µM was in the range of 2.51 to 5 in the experiment with T-cell [2] and 1.01 to 1.3 in the experiment with T-cell [3]. Moreover, the fold induction at 1 µM in the experiment with T-cell [2] was in the range of 1.01 to 2.5; with T-cell [3], 1.31 to 1.5. Also, the fold induction at 4 µM was 5 to 7.5 in the experiment with T-cell [2] and above 1.76 in the experiment with T-cell [3]. At Cbl-b (residues 36-427), this compound showed a Kd of 301 to 1000 nM.
